In patent US9284283B2, “Macrocyclic compounds for modulating IL-17” (ENSEMBLE THERAPEUTICS CORPORATION, priority 2012, dated 2016):
Several values for one entry are separate records, joined by “and”; a condition that tells them apart may be missing. Identical values can stand only once.

Key:
[1] = target: T1, recombinant human IL17a (binding to its receptor IL17R) (Homo sapiens, UniProt Q16552); experiment: IL-17 competition ELISA I (IL17a coated, IL17R/Fc binding)
T1 construct: purchased R&D Systems 317-ILB (IL17a); 177-IR (IL17R/Fc)
T1 sequence (Q16552 20-155 limits assumed): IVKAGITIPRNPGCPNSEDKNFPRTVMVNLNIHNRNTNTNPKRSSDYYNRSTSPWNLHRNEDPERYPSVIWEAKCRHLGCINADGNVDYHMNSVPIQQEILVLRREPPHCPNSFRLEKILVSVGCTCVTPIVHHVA
How it was run: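 Plates coated with 20 nM recombinant human IL17a received compound dilutions and 12 nM IL17R/Fc (final) for 30 min at room temperature. Bound receptor was detected with HRP anti-human Fc and TMB, read at 450 nm. IC50 came from a 4-parameter logistic fit between no-competitor and blank controls.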

IL17A = target: T2, IL17A (Homo sapiens, UniProt Q16552); experiment: Surface Plasmon Resonance (SPR) analysis of compound interactions with IL17A; settings: SPR binding to IL17A
T2 sequence (Q16552 24-155): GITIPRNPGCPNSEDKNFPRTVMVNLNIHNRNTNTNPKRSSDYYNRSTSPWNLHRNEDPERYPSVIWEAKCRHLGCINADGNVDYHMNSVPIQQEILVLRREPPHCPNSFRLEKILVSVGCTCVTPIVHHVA
Description: SPR analysis was carried out with a GE Healthcare (Piscataway, N.J.) Biacore X100 system. Typically, the chip (NTA Biacore Biosensor chip; GE Healthcare BR-1000-34) was first conditioned by injection of 0.35 M EDTA, which also served to remove any immobilized proteins from previous runs. Before immobilization of the recombinant 6-His-tagged IL17, the chip was washed with 0.5 mM nickel chloride in NTA buffer (10 mM HEPES buffer, 0.15 M sodium chloride, 10 μM ethylene diamine tetraacetic acid, 0.005% v/v surfactant P20 (GE Healthcare BR-1000-54)) to form a nickel chelate on the chip. IL17 protein was immobilized onto a NTA chip through its 6-His tag. IL17A was typically injected at 0.25 μM for 60-120 seconds, followed by a stabilization step washing with NTA+0.5% DMSO for 120 seconds or longer.
Five 2-fold or 3-fold serial dilutions of test compound were injected serially onto the chip. All steps were conducted using NTA buffer containing 0.5% v/v dimethylsulfoxide (DMSO). Compounds were diluted from stock solutions of 10 mM concentration in 100% DMSO with NTA buffer to obtain 50 μM solutions in NTA+0.5% DMSO. Subsequent 2× or 3× dilutions were made in NTA+0.5% DMSO. Compound was generally injected for 180 seconds followed by washing the chip in buffer alone for 120 seconds. The rate of refractive index change (RU units/time) and the maximum extend of RU change was measured during the “on” phase of analyte injection, followed by measuring the rate during the “off” phase.
Kinetic parameter fits were conducted using the Biacore SPR Evaluation Program (GE Healthcare) for 1:1 molecular binding fits, after subtracting the baseline average of 2 or more runs in which no analyte was injected. This program then reports the best fit average for the “on” rate (Ka), the “off” rate (Kd) and the dissociation constant (KD) (Chaiken, I et al., Anal Biochem 201, 197-210 (1992)). A separate program in the Biacore SPR Evaluation Program then calculates the best fit for Kd based upon the extent of binding alone (RU units bound) at each concentration of analyte and reports the best fit Kd by best fit to a Lineweaver-Burke plot. Typically, the Kd value calculated through both means agreed within a factor of three.
The presence and activity of IL17 on the NTA chip was routinely confirmed three ways: • 1) An increase in response units (RU) upon immobilization confirms that the IL17 was immobilized on the chip; • 2) Anti-IL17 was also injected on the chip to confirm the presence of IL17; and • 3) IL17R was injected onto the chip to confirm that the immobilized IL17 retained its binding activity for its receptor. Negative controls to access specificity for compound binding were conducted by immobilizing unrelated, but his-tagged, proteins (such as cyclophilin D) and conducting the same analysis as done with IL17A.

[2] = target: T3, biotinylated human IL-17 (binding to IL17R/Fc) (Homo sapiens, UniProt Q16552); experiment: IL-17 competition ELISA II (captured IL17R/Fc, biotinylated IL-17)
T3 construct: purchased R&D Systems 317-ILB (IL-17, biotinylated); 177-IR (IL17R/Fc)
T3 sequence (Q16552 20-155 limits assumed): T1 sequence (Q16552 20-155 limits assumed)
How it was run: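 Competition read-out: absorbance at 450 nm after streptavidin-HRP/TMB detection, fitted to a 4-parameter logistic model bounded by no-competitor and blank wells to give IC50. Compound was serially diluted 5-fold from 1 μM alongside 20 nM (stock) biotinylated IL-17 on IL17R/Fc (10 nM) captured via goat anti-human IgG, 30 min at room temperature.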

Row | SMILES | IC50 [1] [nM] | Kd (IL17A) | IC50 [2] [nM]
1 | O=C1CNC(=O)[C@@H](Cc2ccc(NC(=O)[C@H](Cc3ccccc3Cl)NC(=O)c3ccccc3Cl)cc2)NC(=O)CC2(CCCC2)CC(=O)NCCCCCN1 [Compound 204] | 100 to 1000 | < 100 nM | 
2 | O=C1CNC(=O)[C@@H](Cc2ccc(NC(=O)[C@H](Cc3csc4ccccc34)NC(=O)Cc3ccccc3)cc2)NC(=O)CC2(CCCC2)CC(=O)NCCCCCN1 [Compound 233] | 100 to 1000 | < 100 nM | 
3 | O=C1CCCC(=O)N[C@H](Cc2ccc(NC(=O)[C@H](Cc3ccccc3Cl)NC(=O)Cc3ccccc3)cc2)C(=O)NCC(=O)NCCCCCN1 [Compound 221] | 1000 to 10000 | 100 to 1000 nM | 
4 | O=C1CNC(=O)[C@@H](Cc2ccc(NC(=O)[C@H](Cc3ccc(Cl)cc3)NC(=O)Cc3ccccc3)cc2)NC(=O)CC2(CCCC2)CC(=O)OCCCCCN1 [Compound 213] | > 10000 | 100 to 1000 nM | 
5 | O=C1CNC(=O)[C@@H](Cc2ccc(NC(=O)[C@H](Cc3ccccc3Cl)NC(=O)Cc3ccccc3)cc2)NC(=O)CC2(CCCCC2)CC(=O)NCCCCCN1 [Compound 223] | < 100 | < 100 nM | 
6 | O=C1CNC(=O)[C@@H](Cc2ccc(NC(=O)[C@H](Cc3ccc(Cl)c(Cl)c3)NC(=O)Cc3ccccc3)cc2)NC(=O)CC2(CCCC2)CC(=O)OCCCCCN1 [Compound 224] | 1000 to 10000 | 100 to 1000 nM | 
7 | CN1CC(=O)NCCCCCNC(=O)CC2(CCCC2)CC(=O)N[C@H](Cc2ccc(NC(=O)[C@H](Cc3ccccc3Cl)NC(=O)Cc3ccccc3)cc2)C1=O [Compound 188] | 1000 to 10000 | 100 to 1000 nM | 
8 | O=C1CNC(=O)[C@@H](Cc2ccc(NC(=O)[C@H](Cc3cccc(Cl)c3)NC(=O)Cc3ccccc3)cc2)NC(=O)CC2(CCCC2)CC(=O)OCCCCCN1 [Compound 212] | 100 to 1000 | 100 to 1000 nM | 
9 | CC1(C)CC(=O)NCCCCCNC(=O)CNC(=O)[C@@H](Cc2ccc(NC(=O)[C@H](Cc3ccccc3Cl)NC(=O)Cc3ccccc3)cc2)NC(=O)C1 [Compound 222] | < 100 | < 100 nM | 
10 | COC(=O)[C@@H]1Cc2ccc(cc2)NC(=O)CCCNC(=O)[C@@H](Cc2ccc(NC(=O)[C@H](Cc3ccccc3F)NC(=O)c3ccccc3)cc2)NC(=O)CC2(CCCC2)CC(=O)N1 [Compound 134] |  | 100 to 1000 nM | 
11 | COC(=O)[C@@H]1CCCCNC(=O)CCCNC(=O)[C@@H](Cc2ccc(NC(=O)[C@H](Cc3cccc(F)c3)NC(=O)Cc3ccccc3)cc2)NC(=O)CC2(CCCC2)CC(=O)N1 [Compound 116] |  | 100 to 1000 nM | 
12 | CC(=O)N[C@@H](Cc1ccccc1Cl)C(=O)Nc1ccc(C[C@H]2NC(=O)CC3(CCCC3)CC(=O)NCCCCCNC(=O)CCCNC2=O)cc1 [Compound 155] |  | < 100 nM | 
13 | O=C1CCCNC(=O)[C@@H](Cc2ccc(NC(=O)[C@H](Cc3ccccc3Cl)NC(=O)Cc3ccccc3)cc2)NC(=O)CC2(CCCC2)CC(=O)N(CCO)CCCCCN1 [Compound 172] |  | < 100 nM | 
14 | CC(=O)N[C@@H](Cc1ccccc1Cl)C(=O)Nc1ccc(C[C@H]2NC(=O)CC3(CCCC3)CC(=O)NCCCCNC(=O)CCCNC2=O)cc1 [Compound 167] |  | < 100 nM | 
15 | COC(=O)[C@@H]1CCCCNC(=O)CCCNC(=O)[C@@H](Cc2ccc(NC(=O)[C@H](Cc3ccccc3C)NC(=O)Cc3ccccc3)cc2)NC(=O)CC2(CCCC2)CC(=O)N1 [Compound 126] |  | 100 to 1000 nM | 
16 | O=C1CCCNC(=O)[C@H](Cc2ccc(NC(=O)[C@H](Cc3ccccc3F)NC(=O)Cc3ccccc3)cc2)NC(=O)CC2(CCCC2)CC(=O)N[C@H](C(=O)O)CCCCN1 [Compound 174] |  | 100 to 1000 nM | 
17 | COC(=O)[C@@H]1CCCCNC(=O)CCCNC(=O)[C@H](Cc2ccc(NC(=O)[C@H](Cc3ccccc3F)NC(=O)Cc3ccccc3)cc2)NC(=O)CC2(CCCC2)CC(=O)N1 [Compound 105] |  | 1000 to 10000 nM and 100 to 1000 nM | 

Row | SMILES | IC50 [1] [nM] | Kd (IL17A) | IC50 [2] [nM]
18 | COC(=O)[C@H]1CCCCNC(=O)CCCNC(=O)[C@@H](Cc2ccc(NC(=O)[C@H](Cc3ccccc3)NC(=O)c3ccccc3)cc2)NC(=O)CC2(CCCC2)CC(=O)N1 [Compound 139] |  | 100 to 1000 nM | 
19 | O=C1CCNC(=O)[C@@H](Cc2ccc(NC(=O)[C@H](Cc3ccccc3Cl)NC(=O)Cc3ccccc3)cc2)NC(=O)CC2(CCCC2)CC(=O)NCCCN1 [Compound 157] |  | < 100 nM | 
20 | CC(=O)N[C@@H](Cc1ccccc1Cl)C(=O)Nc1ccc(C[C@H]2NC(=O)CC3(CCCC3)CC(=O)N(CCO)CCCCCNC(=O)CCNC2=O)cc1 [Compound 171] |  | < 100 nM | 
21 | CC(C)(C)[C@H](NC(=O)Cc1ccccc1)C(=O)Nc1ccc(C[C@H]2NC(=O)CC3(CCCC3)CC(=O)NCCCCCNC(=O)CNC2=O)cc1 [Compound 231] |  | 100 to 1000 nM | 100 to 1000
22 | O=C1CCNC(=O)[C@@H](Cc2ccc(NC(=O)[C@H](Cc3ccccc3Cl)NC(=O)Cc3ccccc3)cc2)NC(=O)CC2(CCCC2)CC(=O)NCCCCCN1 [Compound 160] |  | < 100 nM | 
23 | COC(=O)[C@@H]1Cc2ccc(cc2)NC(=O)CCCNC(=O)[C@@H](Cc2ccc(NC(=O)[C@H](Cc3ccccc3F)NC(=O)Cc3ccccc3)cc2)NC(=O)CC2(CCCC2)CC(=O)N1 [Compound 135] |  | 100 to 1000 nM | 
24 | O=C1CC2(CCCC2)CC(=O)N[C@H](Cc2ccc(NC(=O)[C@H](Cc3ccccc3F)NC(=O)Cc3ccccc3)cc2)C(=O)NCCCC[C@@H](C(=O)O)N1 [Compound 179] |  | 100 to 1000 nM | < 100
25 | COC(=O)[C@H]1CCCCNC(=O)C(C)(C)NC(=O)[C@@H](Cc2ccc(NC(=O)[C@H](Cc3ccccc3Cl)NC(=O)c3ccccc3)cc2)NC(=O)CC2(CCCC2)CC(=O)N1 [Compound 146] |  | < 100 nM | 
26 | COC(=O)[C@@H]1CCCCNC(=O)CCCNC(=O)[C@@H](Cc2ccc(NC(=O)[C@H](Cc3ccccc3F)NC(=O)c3ccccc3)cc2)NC(=O)CC2(CCCC2)CC(=O)N1 [Compound 128] |  | 100 to 1000 nM | 
27 | COC(=O)[C@@H]1CCCCNC(=O)CCCCCNC(=O)[C@@H](Cc2ccc(NC(=O)[C@H](Cc3ccccc3F)NC(=O)Cc3ccccc3)cc2)NC(=O)CC2(CCCC2)CC(=O)N1 [Compound 111] |  | 100 to 1000 nM | 
28 | COC(=O)[C@H]1CCCCNC(=O)CNC(=O)[C@@H](Cc2ccc(NC(=O)[C@H](Cc3ccccc3F)NC(=O)c3ccccc3)cc2)NC(=O)CC2(CCCC2)CC(=O)N1 [Compound 150] |  | < 100 nM | 
29 | O=C1CNC(=O)[C@@H](Cc2ccc(NC(=O)[C@H](Cc3ccccc3Cl)NC(=O)Cc3ccccc3)cc2)NC(=O)CC2(CCCC2)CC(=O)NCCCN1 [Compound 156] |  | < 100 nM | 
30 | COC(=O)[C@H]1CCCCNC(=O)[C@H](CO)NC(=O)[C@@H](Cc2ccc(NC(=O)[C@H](Cc3ccccc3Cl)NC(=O)c3ccccc3)cc2)NC(=O)CC2(CCCC2)CC(=O)N1 [Compound 148] |  | 100 to 1000 nM | 
31 | CC1(C)NC(=O)[C@@H](Cc2ccc(NC(=O)[C@H](Cc3ccccc3Cl)NC(=O)Cc3ccccc3)cc2)NC(=O)CC2(CCCC2)CC(=O)N[C@@H](C(=O)O)CCCCNC1=O [Compound 182] |  | 100 to 1000 nM | 
32 | COC(=O)[C@H]1CCCCNC(=O)[C@H](CO)NC(=O)[C@@H](Cc2ccc(NC(=O)[C@H](Cc3ccccc3Cl)NC(=O)Cc3ccccc3)cc2)NC(=O)CC2(CCCC2)CC(=O)N1 [Compound 147] |  | 100 to 1000 nM | 
33 | CC(=O)N[C@@H](Cc1ccccc1Cl)C(=O)Nc1ccc(C[C@H]2NC(=O)CC3(CCCC3)CC(=O)NCCCCCNC(=O)CCNC2=O)cc1 [Compound 154] |  | < 100 nM | 
34 | COC(=O)[C@@H]1CCCCNC(=O)CNC(=O)[C@@H](Cc2ccc(NC(=O)[C@H](Cc3ccccc3F)NC(=O)c3ccccc3)cc2)NC(=O)CC2(CCCC2)CC(=O)N1 [Compound 151] |  | < 100 nM | 
